Values quoted from earlier work as cited in US20160107977A1, “METHODS OF SYNTHESIS OF INGENOL AND INTERMEDIATES THEREOF” (LEO LABORATORIES LIMITED, priority 2013, published 2016).

How the values were obtained:
[1] = system: breast cancer cell line T47D; details: p53-mediated pathway, Vigone et al. 2005
[2] = system: breast cancer cell line MDA-MB-231; details: p53-mediated pathway, Vigone et al. 2005
Epstein-Barr virus = details: lymphoblastoid cells; Keller et al. 1982

Compound | antitumour activity [1] | antitumour activity [2] | Epstein-Barr virus induction (Epstein-Barr virus)
CC1=CC23C(=O)C(C=C(COC(=O)c4ccccc4)C(O)C2(O)C1O)C1C(CC3C)C1(C)C (stereo not drawn) [ingenol-20-benzoate] | antitumour activity characterized by inhibition of cell growth and apoptotic cell death | antitumour activity characterized by inhibition of cell growth and apoptotic cell death | –
CCCCCCCCCCCCCCCC(=O)O[C@H]1C(C)=C[C@]23C(=O)[C@@H](C=C(CO)[C@@H](O)[C@]12O)[C@H]1[C@@H](C[C@H]3C)C1(C)C | – | – | most potent Epstein-Barr virus inducer
